Results: PMC8952364, “Polyphenols as Inhibitors of Antibiotic Resistant Bacteria—Mechanisms Underlying Rutin Interference with Bacterial Virulence” (Pharmaceuticals, 2022)
In brackets after ≈: the same amount, converted by molar mass. Read-outs that look alike come from different tables or passages of the source.

Tests used:
[1] = test system: Methicillin resistant S. aureus IBRS MRSA 011; test: Antimicrobial microdilution assay (MIC/MBC); format: cell-based, Staphylococcus aureus; conditions: for MIC: 37 °C, 24 h; for MBC: subcultivation, 24 h at 37 °C
Method: (§1) The bacterial suspension (0.5 Mc Farland) was prepared, and twenty-fold dilutions of these suspensions were mixed in a 1:10 ratio with the corresponding polyphenol dilution (0.0039–1 mg/mL). Microtiter plates were incubated at 37 °C for 24 h. The lowest concentrations without visible growth (under a binocular microscope) were defined as MICs. The bactericidal concentrations (MBCs) were determined by serial subcultivation of 2 μL of the well’s content and further incubation for 24 h at 37 °C. Streptomycin (SigmaAldrich, Darmstadt, Germany) was used as a positive control. The polyphenols were obtained from Extrasynthese, Rhone, France (rutin, isoquercitrin) and SigmaAldrich, Germany (hesperetin, hesperidin, naringenin, naringin, taxifolin, morin, chlorogenic acid, ferulic acid, p-coumaric acid, and gallic acid). The stock compounds were prepared in ethanol (30%), and adequate ethanol concentrations were used as the negative control in the assays. Experiments were done in triplicate.

P. aeruginosa IBRS P001 = test: Antimicrobial microdilution assay (MIC/MBC); format: cell-based, Pseudomonas aeruginosa; conditions: for MIC: 37 °C, 24 h; for MBC: subcultivation, 24 h at 37 °C
Method: as §1

P. aeruginosa MMA83 = test: Antimicrobial microdilution assay (MIC/MBC); format: cell-based, Pseudomonas aeruginosa; conditions: for MIC: 37 °C, 24 h; for MBC: subcultivation, 24 h at 37 °C
Method: as §1

E. coli IBRS E003 = test: Antimicrobial microdilution assay (MIC/MBC); format: cell-based, Escherichia coli; conditions: for MIC: 37 °C, 24 h; for MBC: subcultivation, 24 h at 37 °C
Method: as §1

E. coli IMD989 = test: Antimicrobial microdilution assay (MIC/MBC); format: cell-based, Escherichia coli; conditions: for MIC: 37 °C, 24 h; for MBC: subcultivation, 24 h at 37 °C
Method: as §1

A. baumannii 6077/12 = test: Antimicrobial microdilution assay (MIC/MBC); format: cell-based, Acinetobacter baumannii; conditions: for MIC: 37 °C, 24 h; for MBC: subcultivation, 24 h at 37 °C
Method: as §1

A. baumannii S2/2 = test: Antimicrobial microdilution assay (MIC/MBC); format: cell-based, Acinetobacter baumannii; conditions: for MIC: 37 °C, 24 h; for MBC: subcultivation, 24 h at 37 °C
Method: as §1

K. pneumoniae IT977 = test: Antimicrobial microdilution assay (MIC/MBC); format: cell-based, Klebsiella pneumoniae; conditions: for MIC: 37 °C, 24 h; for MBC: subcultivation, 24 h at 37 °C
Method: as §1

K. pneumoniae Ni9 = test: Antimicrobial microdilution assay (MIC/MBC); format: cell-based, Klebsiella pneumoniae; conditions: for MIC: 37 °C, 24 h; for MBC: subcultivation, 24 h at 37 °C
Method: as §1

A. xylosoxidans 37F = test: Antimicrobial microdilution assay (MIC/MBC); format: cell-based, Achromobacter xylosoxidans; conditions: for MIC: 37 °C, 24 h; for MBC: subcultivation, 24 h at 37 °C
Method: as §1

S. infantis 1371/1 = test: Antimicrobial microdilution assay (MIC/MBC); format: cell-based, Salmonella Infantis; conditions: for MIC: 37 °C, 24 h; for MBC: subcultivation, 24 h at 37 °C
Method: as §1

[2] = test system: P. aeruginosa IBRS P001 biofilm; test: Crystal violet antibiofilm assay (biofilm formation); format: cell-based, Pseudomonas aeruginosa; conditions: 24 h
Method: After incubation, each well was washed twice with sterile PBS (phosphate-buffered saline, pH 7.4) and fixed with methanol for 10 min. After removal of methanol the plate was air-dried. The biofilm was stained with 0.1% crystal violet (Bio-Merieux, Marcy l’Etoile, France) for 30 min. The plate was washed with water, air dried, and the stain was dissolved with 200 μL of 96% ethanol (Zorka, Sabac, Serbia). The absorbance was read at 620 nm on a Multiskan™ FC microplate photometer (Thermo Scientific™, Waltham, MA, USA). The results are presented as biofilm forming capacity (%) compared to control.

HaCaT cells [3] = test: Cytotoxicity in HaCaT cell line (crystal violet assay); format: cell-based, human; conditions: HaCaT, 24 h treatment, crystal violet
Method: For determination of the polyphenols’ cytotoxic effect, a crystal violet assay was used, with modifications. The cytotoxic effect of polyphenols was analyzed on spontaneously immortalized human skin keratinocytes (HaCaT, AddexBio No. T0020001, San Diego, CA, USA) cell lines. […] Cells (1 × 10^4 cells/well) were seeded in a 96-well plate (Sarstedt, Nümbrecht, Germany) 24 h before treatment. […] Cells were incubated with the compounds for 24 h. […] After crystal violet was removed, the plates were washed in a stream of tap water and left to air-dry at room temperature for 24 h. The absorbance was measured in a microplate reader (Multiskan™ FC Microplate Photometer, Thermo Scientific™) at 590 nm. The results were expressed as IC50 value in μg/mL. The criterion used to categorize the cytotoxic activity polyphenols was as follows: […] All analyses were performed in triplicate; each replicate was also quantified three times. Data were expressed as mean standard deviation, where applicable.

[4] = test system: eleven antibiotic resistant strains of bacteria; test: Antimicrobial assay, summary over the examined strains; format: cell-based; conditions: antibiotic resistant strains of Table 1
Method: as §1

E. coli CECT434 = test system: E. coli CECT434; parameters: method as in PMID 22823343; conditions: cited from earlier work
P. aeruginosa ATCC 10145 = test system: P. aeruginosa ATCC 10145; parameters: method as in PMID 22823343; conditions: cited from earlier work
S. aureus CECT 976 = test system: S. aureus CECT 976; parameters: method as in PMID 22823343; conditions: cited from earlier work
[5] = test system: P. aeruginosa ATCC 10145 biofilms; parameters: method as in PMID 22823343; conditions: 1000 µg/mL; cited from earlier work
E. coli ATCC 25922 = test system: E. coli ATCC 25922; parameters: method as in PMID 29327068; conditions: cited from earlier work
HaCaT cells [6] = test system: HaCaT cells; parameters: method as in PMID 28962387; conditions: previous assessment; cited from earlier work

## COc1cc(/C=C/C(=O)O)ccc1O [Ferulic acid, ferulic acid]
[1]
  MIC: 500 µg/mL (≈ 2.57 mM)
  MBC: 1000 µg/mL (≈ 5.15 mM)
P. aeruginosa IBRS P001
  MIC: 500 µg/mL (≈ 2.57 mM)
  MBC: 1000 µg/mL (≈ 5.15 mM)
P. aeruginosa MMA83
  MIC: 1000 µg/mL (≈ 5.15 mM)
  MBC: 1000 µg/mL (≈ 5.15 mM)
E. coli IBRS E003
  MIC: >1000 µg/mL
  MBC: >1000 µg/mL
E. coli IMD989
  MIC: 1000 µg/mL (≈ 5.15 mM)
  MBC: 1000 µg/mL (≈ 5.15 mM)
A. baumannii 6077/12
  MIC: 500 µg/mL (≈ 2.57 mM)
  MBC: 500 µg/mL (≈ 2.57 mM)
A. baumannii S2/2
  MIC: 500 µg/mL (≈ 2.57 mM)
  MBC: 500 µg/mL (≈ 2.57 mM)
K. pneumoniae IT977
  MIC: 1000 µg/mL (≈ 5.15 mM)
  MBC: 1000 µg/mL (≈ 5.15 mM)
K. pneumoniae Ni9
  MIC: 1000 µg/mL (≈ 5.15 mM)
  MBC: 1000 µg/mL (≈ 5.15 mM)
A. xylosoxidans 37F
  MIC: 1000 µg/mL (≈ 5.15 mM)
  MBC: 1000 µg/mL (≈ 5.15 mM)
S. infantis 1371/1
  MIC: 1000 µg/mL (≈ 5.15 mM)
  MBC: 1000 µg/mL (≈ 5.15 mM)
[2]; 500 µg/mL (MIC)
  biofilm inhibition: even higher inhibition
[2]; MIC and sub-MIC, crystal violet, Figure 1
  reduction of biofilm formation (biomass), in words: significant (****, p < 0.0001) reduction
HaCaT cells [3]
  IC50 (compound concentration that inhibited 50% of the cell growth): >1000 µg/mL
[4]
  lowest MIC among the examined strains: 500 µg/mL
E. coli CECT434
  MIC: 100 µg/mL (≈ 0.515 mM)
P. aeruginosa ATCC 10145
  MIC: 100 µg/mL (≈ 0.515 mM)
S. aureus CECT 976
  MIC: 1100 µg/mL (≈ 5.66 mM)
[5]
  reduction of biofilms: more than 70%

## O=C(O)c1cc(O)c(O)c(O)c1 [Gallic Acid, gallic acid]
[1]; Staphylococcus aureus, MRSA, read-out: MIC
  MIC: > 1000 µg/mL
[1]; Staphylococcus aureus, MRSA, read-out: MBC
  MBC: > 1000 µg/mL
P. aeruginosa IBRS P001; Pseudomonas aeruginosa, IBRSP001, read-out: MIC
  MIC: > 1000 µg/mL
P. aeruginosa IBRS P001; Pseudomonas aeruginosa, IBRSP001, read-out: MBC
  MBC: > 1000 µg/mL
P. aeruginosa MMA83; Pseudomonas aeruginosa, MMA83, read-out: MIC
  MIC: 1000 µg/mL (≈ 5.88 mM)
P. aeruginosa MMA83; Pseudomonas aeruginosa, MMA83, read-out: MBC
  MBC: 1000 µg/mL (≈ 5.88 mM)
E. coli IBRS E003
  MIC: >1000 µg/mL
E. coli IBRS E003; Escherichia coli, IBRSE003, read-out: MIC
  MIC: > 1000 µg/mL
E. coli IBRS E003; Escherichia coli, IBRSE003, read-out: MBC
  MBC: > 1000 µg/mL
E. coli IMD989
  MIC: >1000 µg/mL
E. coli IMD989; Escherichia coli, IMD989, read-out: MIC
  MIC: > 1000 µg/mL
E. coli IMD989; Escherichia coli, IMD989, read-out: MBC
  MBC: > 1000 µg/mL
A. baumannii 6077/12; Acinetobacter baumannii, 6077/12, read-out: MIC
  MIC: 500 µg/mL (≈ 2.94 mM)
A. baumannii 6077/12; Acinetobacter baumannii, 6077/12, read-out: MBC
  MBC: 1000 µg/mL (≈ 5.88 mM)
A. baumannii S2/2; Acinetobacter baumannii, S2/2, read-out: MIC
  MIC: 500 µg/mL (≈ 2.94 mM)
A. baumannii S2/2; Acinetobacter baumannii, S2/2, read-out: MBC
  MBC: 500 µg/mL (≈ 2.94 mM)
K. pneumoniae IT977; Klebsiella pneumoniae, IT977, read-out: MIC
  MIC: 1000 µg/mL (≈ 5.88 mM)
K. pneumoniae IT977; Klebsiella pneumoniae, IT977, read-out: MBC
  MBC: 1000 µg/mL (≈ 5.88 mM)
K. pneumoniae Ni9; Klebsiella pneumoniae, NI9, read-out: MIC
  MIC: 1000 µg/mL (≈ 5.88 mM)
K. pneumoniae Ni9; Klebsiella pneumoniae, NI9, read-out: MBC
  MBC: 1000 µg/mL (≈ 5.88 mM)
A. xylosoxidans 37F; Achromobacter xylosoxidans, 37F, read-out: MIC
  MIC: 500 µg/mL (≈ 2.94 mM)
A. xylosoxidans 37F; Achromobacter xylosoxidans, 37F, read-out: MBC
  MBC: 1000 µg/mL (≈ 5.88 mM)
S. infantis 1371/1; Salmonella enterica, 1371/1, read-out: MIC
  MIC: > 1000 µg/mL
S. infantis 1371/1; Salmonella enterica, 1371/1, read-out: MBC
  MBC: > 1000 µg/mL
HaCaT cells [3]; Homo sapiens, read-out: IC50 (compound concentration that inhibited 50% of the cell growth)
  IC50: < 80 µg/mL
E. coli ATCC 25922
  MIC: 500 µg/mL (≈ 2.94 mM)
HaCaT cells [6]
  IC50 towards HaCaT cells: 84.2 µg/mL (≈ 0.495 mM)
